The results in this text go back to patent publication US12552790B2, “Positive modulators of the muscarinic acetylcholine receptor M4” (Vanderbilt University, priority 2023, dated 2026).

In one data set the target is T1, Human M2 (Homo sapiens, UniProt P08172).
T1 construct: expressed in transfected cells; host or cells: CHO-K1
T1 sequence (P08172 1-466): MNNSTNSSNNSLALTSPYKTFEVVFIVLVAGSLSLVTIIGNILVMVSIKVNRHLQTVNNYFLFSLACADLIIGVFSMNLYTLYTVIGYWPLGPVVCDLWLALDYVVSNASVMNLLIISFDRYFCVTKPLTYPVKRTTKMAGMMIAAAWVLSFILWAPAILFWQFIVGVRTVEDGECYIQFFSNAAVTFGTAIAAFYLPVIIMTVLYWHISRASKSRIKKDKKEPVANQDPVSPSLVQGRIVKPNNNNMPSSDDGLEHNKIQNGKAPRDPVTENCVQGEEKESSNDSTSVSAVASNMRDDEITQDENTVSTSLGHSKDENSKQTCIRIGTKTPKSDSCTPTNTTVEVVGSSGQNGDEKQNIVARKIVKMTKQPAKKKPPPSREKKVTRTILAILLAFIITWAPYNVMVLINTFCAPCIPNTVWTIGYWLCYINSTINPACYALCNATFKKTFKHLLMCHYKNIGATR
Put plainly: M2 cell-based functional assay, calcium mobilization (selectivity). The conditions noted are these: for Emax at 30 µM: % ACh maximum at 30 μM; for EC50: M2 cell-based functional assay, calcium flux. Summed up: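 CHO-K1 cells stably expressing receptor, Fluo-4-AM loaded (final 1.15 μM), compound added (140 s) then ACh at EC20 and EC80; Ca flux read at 480/530 nm. Normalized to max ACh response; agonist, PAM (EC20 increase) and antagonist (EC80 decrease) activity fitted by four-parameter logistic for EC50 and Emax.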

A short description of data set [1]: Human fraction unbound in plasma. The data set is classed as in vitro ADME. To be noted: read-out: Human Fu (plasma). From the text:
(§1) Compounds may be tested in in vitro assays to investigate both metabolism and pharmacokinetics. These assays may be performed according to known methods as generally described in the following references: Conde-Ceide et al. ACS Med. Chem. Lett. 2015, 6, 716-720; Morris et al. J. Med. Chem. 2014, 57, 10192-10197; and Bubser et al. ACS Chem. Neurosci. 2014, 5, 920-942.

Data set [2] in a line: Dog fraction unbound in plasma. It is filed as in vitro ADME. To be noted: read-out: Dog Fu (plasma).
From the text: as §1

The test system of data set [3] is 68 primary molecular targets. Put plainly: Eurofins LeadProfilingScreen (binding). The conditions noted are these: 10 μM (binding), 68 targets. From the text: The screen includes 68 primary molecular targets, including several CNS targets recommended by the EMEA to evaluate drug dependence potential.
A further data set in a line: Rat intrinsic clearance. The data set is classed as in vitro ADME.
From the text: as §1

The next data set concerns the target T2, P450 1A2 (Homo sapiens, UniProt P05177).
T2 sequence (P05177 1-516): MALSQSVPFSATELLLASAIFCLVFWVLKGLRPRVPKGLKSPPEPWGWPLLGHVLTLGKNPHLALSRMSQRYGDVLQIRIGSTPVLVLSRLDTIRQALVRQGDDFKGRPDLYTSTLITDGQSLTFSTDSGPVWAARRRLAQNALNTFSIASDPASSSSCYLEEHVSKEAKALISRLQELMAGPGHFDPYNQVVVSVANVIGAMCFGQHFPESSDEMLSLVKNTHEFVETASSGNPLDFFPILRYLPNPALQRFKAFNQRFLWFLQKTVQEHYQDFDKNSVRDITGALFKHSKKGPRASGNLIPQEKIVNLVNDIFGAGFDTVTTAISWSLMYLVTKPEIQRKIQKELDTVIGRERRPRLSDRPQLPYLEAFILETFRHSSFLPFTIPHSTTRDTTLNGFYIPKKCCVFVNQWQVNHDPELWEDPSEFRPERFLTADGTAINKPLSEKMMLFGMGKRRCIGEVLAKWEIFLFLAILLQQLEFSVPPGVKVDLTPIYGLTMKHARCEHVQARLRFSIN
The data set is described as follows: P450 1A2 inhibition. It is filed as in vitro ADME.
From the text: as §1

Broadly, the Emax is the size of the effect at its maximum, as opposed to the concentration needed. A word on the EC50: it is the midpoint of the concentration-response curve. Usually CLint scaled stands for the capacity of the preparation to metabolise the compound, expressed as a volume cleared per time. One may read the IC50 as the concentration that gives 50% inhibition. Lower therefore signals greater potency in that assay.

Each structure is given as a SMILES string.

Consider `[2H]C1([2H])Oc2ccc(OC3CCN(c4nc5nn(C)c(=O)n5c(C)c4C)CC3)cc2OC1([2H])[2H]` [Compound A10, 7-(4-((2,3-dihydrobenzo[b][1,4]dioxin-6-yl-2,2,3,3-d4)oxy)piperidin-1-yl)-2,5,6-trimethyl-[1,2,4]triazolo[4,3-a]pyrimidin-3(2H)-one], for which, at Human M2, the Emax at 30 µM was 54% and the 50% effective concentration (EC50) worked out at 1520 nM.

For `[2H]C1([2H])Oc2ccc(OC3CCN(c4nc5c(cc4C)C(=O)NC5)CC3)cc2OC1([2H])[2H]` [Compound 3, 2-(4-((2,3-dihydrobenzo[b][1,4]dioxin-6-yl-2,2,3,3-d4)oxy)piperidin-1-yl)-3-methyl-6,7-dihydro-5H-pyrrolo[3,4-b]pyridin-5-one], the fraction unbound in data set [1] is 0.022. Besides, the fraction unbound in data set [2] worked out at 0.042. In addition, on Human M2, the maximal response (Emax) at 30 µM turned out to be 61% and the EC50 was 658 nM. Moreover, the “inhibition of each target in the LeadProfilingScreen” value in data set [3] was under 50%. This compound yielded a CLint scaled in the data set “Rat intrinsic clearance” of 90 mL/min/kg. The compound also had a half-inhibitory concentration (IC50) at P450 1A2 of over 100 µM.

Take `[2H]C1([2H])Oc2ccc(OC3CCN(c4nc5nn(C)c(=O)n5cc4C)CC3)cc2OC1([2H])[2H]` [Compound A6, 7-(4-((2,3-dihydrobenzo[b][1,4]dioxin-6-yl-2,2,3,3-d4)oxy)piperidin-1-yl)-2,6-dimethyl-[1,2,4]triazolo[4,3-a]pyrimidin-3(2H)-one]: at Human M2, the maximal effect (Emax) at 30 µM amounted to 68% and the EC50 is 499 nM.
